Patent US20170239318A1, “COMPOSITONS AND METHODS FOR CARTILAGE DEFECT REPAIR USING A RHAMM-MIMETIC PEPTIDE” (New York University, priority 2014, published 2017)
Where two headings read alike, the source gives them in different places.

Key:
[1] = tested on: SW982 synovial cell line; assay: mRNA levels of catabolic markers in IL-1β-treated SW982 synovial fibroblasts (real time PCR); type: cell-based; settings: 52 ng/ml peptide, 10 ng/ml IL-1β, 24 h
Method: FIG. 9: RHAMM-mimetic peptide decreased the mRNA levels of catabolic markers (Cox-2, IL-6, MMP-13) in the SW982 synovial cell line. SW982 cells after being serum-starved for 24 h were treated with RHAMM-mimetic peptide of SEQ ID NO:1 (Pep) at a concentration of 52 ng/ml for 24 h. mRNA levels of Cox-2, IL-6 and MMP-13 were determined by real time PCR using SYBR Green and normalized to the 18 S RNA. mRNA levels are expressed as relative units with the mRNA levels of untreated cells set as 1. Data are expressed as mean±SD from the results of three different cultures.
The synovial fibroblast cell line SW982 was used between passage 3 and passage 7 and cultured in DMEM containing 10% fetal calf serum until the cells reached confluence. Cells were then serum-starved for 24 h and then treated with 10 ng/ml recombinant human IL-1β and 52 ng/ml RHAMM-mimetic peptide for 48 h.
(§1) RT-PCR and Real-Time PCR Analysis. mRNA levels of catabolic markers (cyclooxygenase (Cox)-2, interleukin (IL)-6, inducible nitric oxide synthase (iNOS), matrix metalloproteinase (MMP)-13) and articular cartilage markers (aggrecan, type II collagen) were determined by real time PCR analysis as described by us previously (25, 26). Briefly, total RNA was isolated from chondrocyte cultures using the RNEASY minikit (Qiagen, Valencia, Calif.). One μg of total RNA was reverse transcribed by using an OMNISCRIPT RT kit (Qiagen). A 1:100 dilution of the resulting cDNA was used as the template to quantify the relative content of mRNA by real-time PCR (STEPONEPLUS™ System; Applied Biosystems, Foster City, Calif.) with the appropriate primers and SYBR Green. PCRs were performed with a SYBR Green PCR Master Mix kit (Applied Biosystems), at 95° C. for 10 min followed by 40 cycles at 95° C. for 15 s and 60° C. for 1 min, and 1 cycle at 95° C. for 15 s and 60° C. for 1 min. The 18 S RNA was amplified at the same time and used as an internal control. The cycle threshold values for 18 S RNA and the samples were measured and calculated by computer software.

[2] = tested on: IL-1β-treated human articular chondrocytes; assay: HA released into the medium of IL-1β-treated human articular chondrocytes (ELSA); type: cell-based; settings: 10 ng/ml IL-1β, 48 h
Method: FIG. 7: HA concentration in the medium of human articular chondrocytes is increased by IL-1β. A: RHAMM-mimetic peptide at a concentration of 0.026 μg/ml or 0.052 μg/ml (Pep0.026, Pep0.052) had no effect on the HA release into the medium of IL-1β-treated chondrocytes. […] Human articular chondrocytes were serum-starved for 24 h followed by treatment of these cells with 10 ng/ml IL-1β and various concentrations of the RHAMM-mimetic peptide for 48 h. HA released into the medium was measured by ELSA (ELISA-like) specific assay.
Chondrocyte Cultures. Human articular chondrocytes were isolated from articular cartilage samples obtained from patients (donor age range 48-67) undergoing total knee replacement surgery at NYU Hospital for Joint Diseases. Knee cartilage was harvested from regions with no macroscopically evident degeneration. The collection of tissue from patients undergoing knee replacement surgery was approved by the Institutional Regulatory Board (IRB) at NYU School of Medicine. Human chondrocytes were isolated from these cartilage samples and cultured as described by us previously (24). […]
Analysis of HA concentration in Chondrocyte Culture Medium. […] Conditioned media (approximately 1 ml each sample) from chondrocyte cultures were stored frozen at −20° C. until analyzed. […]

[3] = tested on: full-thickness excisional rat wound; settings: cited from earlier work
[4] = tested on: RHAMM over-expressing LR21 cells; assay: in vitro random motility assay (scratch wound, HA fragment-stimulated cell migration); type: cell-based; settings: 50 μg/mL peptide with 500 ng/mL 30-mer HA fragments, 24 hours; relative to PBS control, p<0.05
Method: FIG. 2: Effect of peptide 15-1 on fibroblast migration, using an in vitro random motility assay. RHAMM over-expressing LR21 cells were plated on a fibronectin-coated surface in Dulbecco's Modified Eagles Medium (DMEM) with 10% fetal bovine serum (FBS). The following day medium was changed to DMEM with 1% FBS, 50 μg/ml peptide, 500 ng/ml 30-mer HA fragment. Random motility was measured microscopically. “Old P15-1” refers to a peptide batch that was used in previous experiments. As control (ctr), PBS was used instead of peptide.
Functional testing of peptide 15-1 using an in vitro random motility assay. The functional testing of peptide 15-1 using an in vitro random motility assay was done essentially as previously described (16). Briefly, RHAMM over-expressing LR21 cells were plated at 7×10^5 cells/well in fibronectin coated six-well plates using Dulbecco's modified Eagle's medium (DMEM) (Gibco BRL/Invitrogen, Carlsbad, Calif.) containing 10% fetal calf serum (FCS). Confluence of cell monolayers after 24 hours was between 80% and 90%. […] The number of cells that had migrated into the scratch wounds was quantified using NIH image processing software ImageJ as follows. A box adjusted to reach each opposing edge of the wound was placed over 3 randomly assigned parts of each scratch wound and the numbers of cells within the box were counted. […]

[5] = molecular target: T1, recombinant RHAMM (Homo sapiens, UniProt O75330); settings: cited from earlier work
T1 sequence (O75330 1-724): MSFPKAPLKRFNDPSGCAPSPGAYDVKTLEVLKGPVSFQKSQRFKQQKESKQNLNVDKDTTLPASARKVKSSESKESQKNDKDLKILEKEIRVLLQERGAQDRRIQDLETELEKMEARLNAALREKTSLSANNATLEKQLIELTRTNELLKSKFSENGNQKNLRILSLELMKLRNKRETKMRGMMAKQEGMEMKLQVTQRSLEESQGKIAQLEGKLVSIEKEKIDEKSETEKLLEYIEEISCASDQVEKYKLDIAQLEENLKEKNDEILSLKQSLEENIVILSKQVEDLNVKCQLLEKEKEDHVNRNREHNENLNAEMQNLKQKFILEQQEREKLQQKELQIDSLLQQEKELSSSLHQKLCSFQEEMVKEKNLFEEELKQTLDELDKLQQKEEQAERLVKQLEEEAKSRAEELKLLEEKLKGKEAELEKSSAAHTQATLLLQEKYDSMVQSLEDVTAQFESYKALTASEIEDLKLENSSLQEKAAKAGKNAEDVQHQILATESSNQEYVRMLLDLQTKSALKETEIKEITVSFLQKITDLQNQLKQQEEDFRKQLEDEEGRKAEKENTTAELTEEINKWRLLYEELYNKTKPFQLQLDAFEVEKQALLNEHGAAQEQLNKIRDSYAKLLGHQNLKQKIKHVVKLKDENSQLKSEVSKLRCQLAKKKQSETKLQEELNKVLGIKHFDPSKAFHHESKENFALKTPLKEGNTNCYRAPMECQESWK

[6] = tested on: serum-starved human articular chondrocytes; assay: mRNA levels of catabolic and articular cartilage markers in serum-starved human articular chondrocytes (real time PCR); type: cell-based; settings: 48 h
Method: FIG. 6: RHAMM-mimetic peptide at concentrations up to 5 μg/ml decreased the mRNA levels of iNOS and MMP-13 (catabolic markers; A) and increased the mRNA levels of type II collagen (α1(II), articular cartilage marker, B) in serum-starved human articular chondrocytes. […] In addition, […] of peptide decreased the mRNA levels of type II collagen. Human articular chondrocytes after being serum-starved for 24 h were treated with RHAMM-mimetic peptide of SEQ ID NO:1 (Pep.) at various concentrations (0, 26, 52, 520, 1000, 5000 ng/ml) for 48 h. mRNA levels of iNOS, MMP-13, and type II collagen were determined by real time PCR using SYBR Green and normalized to the 18 S RNA. mRNA levels are expressed as relative units with the mRNA levels of untreated cells set as 1. Data are expressed as mean±SD from the results of three different cultures.
Chondrocyte Cultures. Human articular chondrocytes were isolated from articular cartilage samples obtained from patients (donor age range 48-67) undergoing total knee replacement surgery at NYU Hospital for Joint Diseases. Knee cartilage was harvested from regions with no macroscopically evident degeneration. The collection of tissue from patients undergoing knee replacement surgery was approved by the Institutional Regulatory Board (IRB) at NYU School of Medicine. Human chondrocytes were isolated from these cartilage samples and cultured as described by us previously (24). Before human chondrocyte cultures were treated with inflammatory stimulus (interleukin-1beta (IL-1β), chondrocyte cultures were switched to serum-free medium for 24 h followed by treatment with the inflammatory stimulus. Cells were treated with 10 ng/ml human recombinant IL-1β in phosphate-buffered saline (PBS)/0.1% BSA. In addition, serum-starved cells were treated with RHAMM-mimetic peptide at various concentrations, HMWHA (ORTHOVISC) at a concentration of 1000 μg/ml, and a combination at four different weight ratios (1:60, 1:30, 1:15, 1:8) of peptide and HMWHA. Cells were treated with these various agents for 24 or 48 h under serum-free conditions.
as §1

[7] = tested on: skin wound repair; settings: cited from earlier work
[8] = tested on: IL-1β-treated human articular chondrocytes; assay: mRNA levels of Cox-2 and type II collagen in IL-1β-treated human articular chondrocytes (real time PCR); type: cell-based; settings: peptide at concentrations up to 64 μg/ml (16, 32, 64), 10 ng/ml IL-1β, 24 h
Method: FIG. 8: RHAMM-mimetic peptide at concentrations (16, 32, 64 μg/ml) decreased the mRNA levels of Cox-2 (catabolic marker; A) and increased the mRNA levels of type II collagen (α1 (II), articular cartilage marker, B) in IL-1β-treated human articular chondrocytes. […] Data are expressed as mean±SD from three different cultures.
Chondrocyte Cultures. Human articular chondrocytes were isolated from articular cartilage samples obtained from patients (donor age range 48-67) undergoing total knee replacement surgery at NYU Hospital for Joint Diseases. Knee cartilage was harvested from regions with no macroscopically evident degeneration. […]
RT-PCR and Real-Time PCR Analysis. mRNA levels of catabolic markers (cyclooxygenase (Cox)-2, interleukin (IL)-6, inducible nitric oxide synthase (iNOS), matrix metalloproteinase (MMP)-13) and articular cartilage markers (aggrecan, type II collagen) were determined by real time PCR analysis as described by us previously (25, 26). […] A 1:100 dilution of the resulting cDNA was used as the template to quantify the relative content of mRNA by real-time PCR (STEPONEPLUS™ System; Applied Biosystems, Foster City, Calif.) with the appropriate primers and SYBR Green. […] The cycle threshold values for 18 S RNA and the samples were measured and calculated by computer software.

[9] = applied once to the wound, compared to scrambled, negative control peptide
[10] = all concentrations tested (0.026, 0.052, 0.520, 1, 5, 800 μg/ml), vs untreated cells

In the case of STMMSRSHKTRSHHV [RHAMM-mimetic peptide], the “Cox-2 mRNA levels” value [1] is reported as “markedly reduced”, the “IL-6 mRNA levels” value [1] is reported as “markedly reduced” and the “MMP-13 mRNA levels” value [1] is reported as “markedly reduced”. The “HA concentration in conditioned medium (increase caused by IL-1β)” value ([2]; peptide 26 ng/ml or 52 ng/ml) was “little effect”, the “HA concentration in conditioned medium (increase caused by IL-1β)” value ([2]; peptide 17 μg/ml) was “significantly reduced” and the scarless healing ([3]; applied once to a full-thickness excisional rat wound) was “promoted a form of scarless healing”. For the same sequence, the blood vessel density [3, 9] was “reduced”, the fibroblast number [3, 9] was “reduced” and the macrophage number [3, 9] was “reduced”. The “type of healing / fibrosis” value ([3]; excisional skin wounds, rat model) was “regenerative type of healing with reduced fibrosis”, the “reduction in fibroblast migration (number of cells migrated into the scratch wounds)” value [4] was “statistically significant” and the “binding of HA fragments to recombinant RHAMM” value [5] was “markedly reduced”. The “decrease of mRNA levels of the catabolic markers (iNOS, MMP-13)” value ([6]; 800 μg/ml compared with lower concentrations of the peptide) was “not as effective”, the “type II collagen mRNA level” value ([6]; 800 μg/ml, compared to untreated cells) was “decreased” and the “MMP-13 mRNA levels” value [6, 10] was “decreased”. The “iNOS mRNA levels” value [6, 10] was “decreased”, the “type II collagen mRNA levels” value ([6]; concentrations up to 5 μg/ml, vs untreated cells) was “increased” and the wound repair ([7]; RHAMM−/− mice) was “not”. For the same sequence, the wound repair ([7]; wild type mice) was “altered”, the “Cox-2 mRNA levels” value [8] was “decreased” and the “type II collagen mRNA level” value [8] was “increased”.
